# Laboratory results: patent US8394742B2, “Methods, compounds and compositions with genotype selective anticancer activity” (The Translation Genomics Research Institute, priority 2005, dated 2013)
# How the values were obtained:
# BxPC-3-vector cells = test: MTS based cell proliferation assay, BxPC-3-vector cells; design: species or system human; settings: BxPC-3-vector (BxPc3Vc, pMSCVneo empty vector), 4 days
# Protocol: (§1) The inhibition of cell proliferation by library compounds was evaluated using the CellTiter 96 Non-Radioactive Cell Proliferation Assay following the protocol recommended by the manufacturer (Promega, Madison Wis.). Briefly, 2000 cells were seeded in each well of 96-well plates in 90 μl growth medium. Cells were allowed to attach overnight followed by addition of 10 μl of serially diluted compounds into the plates. After incubation for 4 days at 37° C. in a humidified incubator, 20 μl of a 20:1 mixture of (3-(4,5-dimethylthiazol-2-yl)-5-(3-carboxymethoxyphenyl)-2-(4-sulfophenyl)-2H-tetrazolium, inner salt (MTS, 2 mg/ml) and an electron coupling reagent, phenazine methosulfate (PMS, 0.92 mg/ml), was added to each well and incubated for 3 hours at 37° C. Absorbance was then measured using the Wallace Victor microplate reader at 490 nm (PerkinElmer, Wellesley, Mass.). Data were expressed as the percentage of cell growth calculated from the absorbance corrected for background absorbance. The surviving fraction of cells was determined by dividing the mean absorbance values of the treated samples by the mean absorbance values of the DMSO control.
# (§2) After generating the isogenic cell lines for the DPC4 gene, Applicants then carried out a screening process using the cell lines with the aim to identify compounds that selectively kill cells with deficient DPC4 function. […]
# BxPC-3 cells = test: Annexin V-FITC apoptosis assay; format: cell-based, human; settings: BxPC-3, 25 μM, 24 hours; untreated control 4.6%
# Protocol: Cells were grown and treated with UA62001 as described in the cell cycle distribution analysis section above. Twenty-four hours after the treatment with the compound, cell media containing detached floating cells were transferred to 15 ml conical tubes; while the attached cells were trypsinized and collected in the same tube. Cells were then pelleted by centrifugation at 1500 rpm for 5 min, washed with PBS and then resuspended in 1×binding buffer at a concentration of 1×10^6 cells/ml. One hundred microliters (1×10^5 cells) were incubated with 5 μl of Annexin V-FITC (BD Pharmingen) and propidium iodide for 15 min in the dark at room temperature. After adding 400 μl of the 1× binding buffer, the cells were analyzed by flow cytometry (BD Immunocytometry systems). Data were acquired and analyzed using CellQuest software.
# Forf = test: MTS cell proliferation assay, Forf normal fibroblasts; format: cell-based, human; settings: even at 200 μM
# Protocol: as §1, §2
smiles,measurement,setting,value
"O=C1c2ccccc2C(=O)c2c1ccc1c(=O)n(-c3ccccc3)[nH]c21 [UA62001, 2-phenyl-1H-Naphth [2,3-g]indazole-3,6,11(2H)-trione]",IC50,BxPC-3-vector cells,3.2 ± 0.45 µM
same,IC50,"BxPC-3-vector cells; Homo sapiens, 96 h",3 µM
same,percentage of cells in the M1 region (Annexin V staining),BxPC-3 cells,8.2%
same,growth inhibition,Forf,little growth inhibition
